Measurements: US7354593B2, “Coccidial vaccine and methods of making and using same” (Merial Limited, priority 2002, dated 2008)
Where two headings read alike, the source gives them in different places.

How the values were obtained:
[1] = test system: E. acervulina, E. mitis, E. tenella, E. maxima; experiment: Challenge phase: polyvalent oral challenge with virulent Eimeria, lesion scores and weight gain six days after challenge; assay type: in vivo, Gallus domesticus (chicken)
Description: Six days following challenge, the vaccinates and controls from each of the Groups in Table 4 were sacrificed, weighed, and the intestines and ceca were examined and scored for lesions. Scoring was in accordance with the Johnson and Reid cocciodial scoring system, as described in Experimental Parisitology, Vol. 28, p 30-36, 1970, the disclosure of which is incorporated by reference in its entirety, as shown in Table 5.
On Day 28, the birds to be challenged were moved to wire cages. Salinomycin was discontinued in Group 3 birds to be challenged. All birds and feed we weighed. Fresh fecal samples were collected from the litter from each group in the large pens, 20 samples per pen. Oocysts by quantified by species.
On Day 29, birds in the cages were challenged using the number of oocysts described in Table 7.
On Day 35, the challenge birds were terminated, the lesions were scored, and weight gains were taken.
Challenge. At Day 28, 3 reps of 10 birds from each pen (total of 60 per treatment) were weighed and moved to the battery cages for challenge with field strains of Eimeria (corresponding to the species used in the vaccine). All birds were given non-medicated feed in the cages. On Day 29, birds of Groups 1-4 were challenged and then terminated on Day 35. Lesion scores and weights were recorded.
(§1) Criteria for Measurement. The primary variables for the floor pen phase were live weights at 28 and 49 days and feed conversion at 49 days. For the challenge phase, primary variables were weight gain six days after challenge, and lesion scores of the upper, mid and cecal gut sections, also at six days after challenge.

[2] = Floor pen phase: live weight, feed conversion and total mortality during 7-week grow-out; assay type: in vivo, Gallus domesticus (chicken)
Description: The timeline was as follows. On Day 0, birds were weighed by pen. The birds in Groups 1 and 2 were vaccinated as described in Table 9, with 1300 birds per vaccine regime, divided between 2 pens, one in each half of the house. The birds in Group 3 were started on Salinomycin, 60 g/ton, divided as described for Groups 1 and 2. The pens were stocked. Extra hatchmates were retained in wire cages as unvaccinated chicks.
On Day 21, the feed from starter to grower was changed for all birds. Salinomycin was continued in Group 3.
On Day 42, all groups were changed to unmedicated finisher feed and the feed back was weighed.
On Day 49, all birds and feed were weighed and the trial was terminated.
Vaccination/Medication. Three treatments of birds identified as Groups 1-3 in Table 9, were replicated in half houses, three pens per house, 650 birds per pen, for a total of 1300 birds per treatment. Birds in […] were vaccinated as described in Table 9. An additional treatment group (4) was maintained separately in clean cages as unvaccinated, untreated controls, for use in the challenge test only.
Treatment Groups 1, 2, and 4 were given non-medicated feed. Treatment Group 3 was given Salinomycin (60 g/ton) beginning on Day 1 through Day 42. The birds in Group 3 to be challenged were given non-medicated feed after the move to the challenge cages. Starter feed was given until 21 days, grower until 42 days and finisher until 49 days. The feed issued was recorded, and any remaining unconsumed feed was weighed back at the time of feed changes and at termination.
(§2) Observations. Birds were weighed by pen at 0 and 28 days and by pen and sex at 49 days. Dead birds were collected twice daily and necropsy performed to determine cause of death.
as §1

Clostridium sordelli = assay type: in vivo, Gallus domesticus (chicken); conditions: necrotic enteritis mortality
Protocol: as §2
Concurrent Medications and Management of Adverse Events. The Coccivac vaccinated birds became sick 14 days into the trial. […] The responsible agent was identified as Clostridium sordelli. All birds in the trial were administered Penicillin G to decrease contamination, and the affects thereof, between pens and to eliminate any difference in treatments among the groups that could skew the coccidiosis results.
It is important to note that the Coccivac vaccinated birds became infected with Clostridium sordelli. Clostridial disease has been linked to infection with coccidiosis in the field. Even though the infection did spread to the other treatments, the Coccivac vaccinated birds were the most affected showing 11.77% mortality.

Salmonella = experiment: Killing of Salmonella by oocyst processing agents
Mycoplasma = experiment: Killing of Mycoplasma by oocyst processing agent

CC[C@@H](C(=O)[C@@H](C)[C@@H](O)[C@H](C)[C@@H]1O[C@@H]([C@@H](CC)C(=O)O)CC[C@@H]1C)[C@H]1O[C@]2(C=C[C@@H](O)[C@]3(CC[C@@](C)([C@H]4CC[C@](O)(CC)[C@H](C)O4)O3)O2)[C@H](C)C[C@@H]1C [SALINOMYCIN, Salinomycin]
Initial Wt. ([1]; Day 28, before challenge, 60 birds challenged per treatment): 1435.47ab
Final Wt. ([1]; Day 35, six days after challenge): 1488.97b
% Mortality Due to Coccidiosis ([1]; after challenge): 0%
Ceca Lesion Score ([1]; ceca, six days after challenge, Johnson and Reid score 0 to +4): 3.25a
Middle Lesion Score ([1]; mid gut, six days after challenge, Johnson and Reid score 0 to +4): 2.90b
6 Day Wt. Gain ([1]; six days after challenge): 53.50 days
ATLS (average total lesion score) ([1]; six days after challenge): 2.88a
TLS (total lesion score) ([1]; six days after challenge): 8.65a
Upper Lesion Score ([1]; upper intestine, six days after challenge, Johnson and Reid score 0 to +4): 2.50a
% All Mortality ([2]; 28 Day Summary): 3.76%
Feed Conversion ([2]; 28 Day Summary): 1.383
Avg Live Wt ([2]; 28 Day Summary, commercial birds, floor pens): 1.45
% Mortality Total ([2]; 49 Day Summary): 5.38%
Avg Live Female Wt ([2]; 49 Day Summary): 2.63
Avg Live Male Wt ([2]; 49 Day Summary): 3.17
Avg Total Live Wt ([2]; 49 Day Summary): 2.90
Feed Conversion ([2]; 49 Day Summary): 1.86
% Mortality NE (Clostridium sordelli; 28 Day Summary): 0.46%
% Mortality NE (Clostridium sordelli; 49 Day Summary): 0.53%

[K+].[K+].[O]=[Cr](=[O])([O-])[O][Cr](=[O])(=[O])[O-] [potassium dichromate]
killing of Salmonella (Salmonella): effectively killed

OCl [sodium hypochlorite]
killing of Mycoplasma (Mycoplasma): effectively killed
killing of Salmonella (Salmonella): effectively killed
